Here are results for 14 molecules from patent US7250413B2, “C-25 carbamate rifamycin derivatives with activity against drug-resistant microbes” (Cumbre Pharmaceuticals Inc., priority 2004, dated 2007).

SMILES strings stand for the structures. Converted amounts (≈) assume the structure as drawn.

Common to all, as to test: MIC, microbroth dilution
Type in all cases: cell-based
For orientation: In broth dilution the organism is exposed to a series of concentrations in liquid medium.

The subject of assay [1] is Enterococcus faecalis ATCC29212. The note with it: rifS, BHI Broth, 37° C., read-out: MIC. On the procedure:
(§1) Representative compounds were assayed for antimicrobial activity as follows: Minimum Inhibitory Concentrations (“MICs”) were determined by the microbroth dilution method as per NCCLS guidelines (National Committee for Clinical Laboratory Standards, 2000), except that all growth incubations were conducted at 37° C. Bacterial cultures were tested in the following bacteriological media: S. aureus, S. epidermidis, and E. coli in Cation-Adjusted Mueller-Hinton Broth, S. pneumoniae in THY Broth supplemented with 1 mg/mL catalase under 5% CO2 atmosphere, S. pyogenes in THY Broth, E. faecalis in BHI Broth, H. influenzae in BHI Broth supplemented with 0.75 μL of 1 mg/mL NAD and 150 μL of 1 mg/ml hematin per 5 mL, and M smegmatis in Middlebrook Broth plus ADC Enrichment.

Assay [2] relates to Staphylococcus aureus ATCC29213. The note with it: rifS, Cation-Adjusted Mueller-Hinton Broth, 37° C., read-out: MIC. The protocol:
as §1

Assay [3] concerns Mycobacterium smegmatis ATCC700084. The note with it: Mycolicibacterium smegmatis, ATCC700084; rifS; Middlebrook Broth plus ADC Enrichment, 37° C.; read-out: MIC. On the procedure: as §1

What is called MIC is the lowest concentration found to suppress growth.

`CO[C@H]1/C=C/O[C@@]2(C)Oc3c(C)c(O)c4c(c3C2=O)C(=O)C(N2CCOCC2)=C(NC(=O)/C(C)=C\C=C\[C@H](C)[C@H](O)[C@@H](C)[C@@H](O)[C@@H](C)[C@H](OC(=O)NCC#Cc2cccc(CO)c2)[C@@H]1C)C4=O` [Example 44, 25-O-Desacetyl-(carbonyl-[3-(3-amino-prop-1-ynyl)-phenyl]-methanol) 3-morpholino rifamycin S]: the values for the MIC in assay [1], in assay [2] and in assay [3] were 0.25 to 62 µg/mL (≈ 0.27 to 67 µM), 0.002 to 1.95 µg/mL (≈ 0.00216 to 2.11 µM) and 0.063 to 31 µg/mL, respectively.
On the same counts, the results for `Cc1cc2cc(NC(=O)c3ccc(N4CCNCC4)c(C(F)(F)F)c3)ccc2[nH]1` [Example 50, N-(2-Methyl-1H-indol-5-yl)-4-piperazin-1-yl-3-trifluoromethyl-benzamide] are 0.25 to 62 µg/mL (≈ 0.621 to 154 µM), 0.002 to 1.95 µg/mL (≈ 0.00497 to 4.85 µM) and 0.063 to 31 µg/mL.
The like results for `CO[C@H]1/C=C/O[C@@]2(C)Oc3c(C)c(O)c4c(c3C2=O)C(=O)C(N2CCOCC2)=C(NC(=O)/C(C)=C\C=C\[C@H](C)[C@H](O)[C@@H](C)[C@@H](O)[C@@H](C)[C@H](OC(=O)N(CCN(C)C)Cc2ccccc2)[C@@H]1C)C4=O` [Example 37, 25-O-Desacetyl-(carbonyl-N′-benzyl-N,N-dimethyl-ethane-1,2-diamino) 3-morpholino rifamycin S] were, in that order, 0.25 to 62 µg/mL (≈ 0.265 to 65.7 µM), 0.002 to 1.95 µg/mL (≈ 0.00212 to 2.07 µM) and 0.063 to 31 µg/mL.
`CO[C@H]1/C=C/O[C@@]2(C)Oc3c(C)c(O)c4c(c3C2=O)C(=O)C(N2CCOCC2)=C(NC(=O)/C(C)=C\C=C\[C@H](C)[C@H](O)[C@@H](C)[C@@H](O)[C@@H](C)[C@H](OC(=O)NCCC2CCCN2C)[C@@H]1C)C4=O` (stereo partly drawn) [Example 31, 25-O-Desacetyl-(carbonyl-2-(1-methyl-pyrrolidin-2-yl)-ethylamine) 3-morpholino rifamycin S]: the MIC was 0.25 to 62 µg/mL (≈ 0.28 to 69.4 µM) in assay [1], 0.002 to 1.95 µg/mL (≈ 0.00224 to 2.18 µM) in assay [2] and 0.063 to 31 µg/mL in assay [3].
Regarding `CO[C@H]1/C=C/O[C@@]2(C)Oc3c(C)c(O)c4c(c3C2=O)C(=O)C(N2CCOCC2)=C(NC(=O)/C(C)=C\C=C\[C@H](C)[C@H](O)[C@@H](C)[C@@H](O)[C@@H](C)[C@H](OC(=O)NCc2cccc(C(F)(F)F)c2)[C@@H]1C)C4=O` [Example 13, 25-O-Desacetyl-(carbonyl-1-(3-trifluoromethylbenzylamino)) 3-morpholino rifamycin S], the MIC in assay [1] lay in the range of 0.25 to 62 µg/mL (≈ 0.266 to 66 µM); in assay [2], 0.002 to 1.95 µg/mL (≈ 0.00213 to 2.07 µM); in assay [3], 0.063 to 31 µg/mL.
Consider `CO[C@H]1/C=C/O[C@@]2(C)Oc3c(C)c(O)c4c(c3C2=O)C(=O)C(N2CCOCC2)=C(NC(=O)/C(C)=C\C=C\[C@H](C)[C@H](O)[C@@H](C)[C@@H](O)[C@@H](C)[C@H](OC(=O)NCc2ccc(N(C)C)cc2)[C@@H]1C)C4=O` [Example 36, 25-O-Desacetyl-(carbonyl-(4-aminomethyl-phenyl)-dimethyl-amine) 3-morpholino rifamycin S], for which the results for the minimal inhibitory concentration (MIC) in assay [1], in assay [2] and in assay [3] were 0.25 to 62 µg/mL (≈ 0.273 to 67.8 µM), 0.002 to 1.95 µg/mL (≈ 0.00219 to 2.13 µM) and 0.063 to 31 µg/mL, respectively.
Regarding `CO[C@H]1/C=C/O[C@@]2(C)Oc3c(C)c(O)c4c(c3C2=O)C(=O)C(N2CCOCC2)=C(NC(=O)/C(C)=C\C=C\[C@H](C)[C@H](O)[C@@H](C)[C@@H](O)[C@@H](C)[C@H](OC(=O)NCCc2cccs2)[C@@H]1C)C4=O` [Example 19, 25-O-Desacetyl-(1-carbonyl-2-thiophen-2-yl-ethylamine) 3-morpholino rifamycin S], the results for the MIC in assay [1], in assay [2] and in assay [3] were 0.25 to 62 µg/mL (≈ 0.28 to 69.5 µM), 0.002 to 1.95 µg/mL (≈ 0.00224 to 2.19 µM) and 0.063 to 31 µg/mL, respectively.
On the same counts, the results for `CO[C@H]1/C=C/O[C@@]2(C)Oc3c(C)c(O)c4c(c3C2=O)C(=O)C(N2CCOCC2)=C(NC(=O)/C(C)=C\C=C\[C@H](C)[C@H](O)[C@@H](C)[C@@H](O)[C@@H](C)[C@H](OC(=O)NCCN(C)C)[C@@H]1C)C4=O` [Example 30, 25-O-Desacetyl-(carbonyl-N,N-dimethylethylenediamine) 3-morpholino rifamycin S] are 0.25 to 62 µg/mL (≈ 0.293 to 72.7 µM), 0.002 to 1.95 µg/mL (≈ 0.00234 to 2.29 µM) and 0.063 to 31 µg/mL.
Turning to `COc1c(N2CCC(NC3CCN(C(=O)O[C@H]4[C@H](C)[C@H](O)[C@H](C)[C@@H](O)[C@@H](C)/C=C/C=C(/C)C(=O)NC5=C(N6CCOCC6)C(=O)c6c(c(O)c(C)c7c6C(=O)[C@@](C)(O/C=C/[C@H](OC)[C@H]4C)O7)C5=O)CC3)CC2)c(F)cc2c(=O)c(C(=O)O)cn(C3CC3)c12` [Example 58], the MIC in assay [1] fell in the range of 0.25 to 62 µg/mL (≈ 0.204 to 50.7 µM); in assay [2], 0.002 to 1.95 µg/mL (≈ 0.00163 to 1.59 µM); in assay [3], 0.063 to 31 µg/mL.
On the same counts, the results for `COc1cncc(NC(=O)c2ccc(N3CCN(C(=O)O[C@H]4[C@H](C)[C@H](O)[C@H](C)[C@@H](O)[C@@H](C)/C=C/C=C(/C)C(=O)NC5=C(N6CCOCC6)C(=O)c6c(c(O)c(C)c7c6C(=O)[C@@](C)(O/C=C/[C@H](OC)[C@H]4C)O7)C5=O)CC3)c(C(F)(F)F)c2)c1` [Example 53, 25-O-Desacetyl-(carbonyl-N-(5-methoxy-pyridin-3-yl)-4-piperazin-1-yl-3-trifluoromethyl-benzamide) 3-morpholino rifamycin S] are 0.25 to 62 µg/mL (≈ 0.218 to 54.1 µM), 0.002 to 1.95 µg/mL (≈ 0.00175 to 1.7 µM) and 0.063 to 31 µg/mL.
On the same counts, the results for `CO[C@H]1/C=C/O[C@@]2(C)Oc3c(C)c(O)c4c(c3C2=O)C(=O)C(N2CCOCC2)=C(NC(=O)/C(C)=C\C=C\[C@H](C)[C@H](O)[C@@H](C)[C@@H](O)[C@@H](C)[C@H](OC(=O)NCCCn2ccnc2)[C@@H]1C)C4=O` [Example 11, 25-O-Desacetyl-(1-carbonyl-3-imidazol-1-yl-propylamine) 3-morpholino rifamycin S] are 0.25 to 62 µg/mL (≈ 0.281 to 69.7 µM), 0.002 to 1.95 µg/mL (≈ 0.00225 to 2.19 µM) and 0.063 to 31 µg/mL.
The like results for `COc1c(N2CCN(C(=O)O[C@H]3[C@H](C)[C@H](O)[C@H](C)[C@@H](O)[C@@H](C)/C=C/C=C(/C)C(=O)NC4=C(N5CCOCC5)C(=O)c5c(c(O)c(C)c6c5C(=O)[C@@](C)(O/C=C/[C@H](OC)[C@H]3C)O6)C4=O)C(C)C2)c(F)cc2c(=O)c(C(=O)O)cn(C3CC3)c12` (stereo partly drawn) [Example 28, 25-O-Desacetyl-(carbonyl-1-cyclopropyl-6-fluoro-8-methoxy-7-(3-methyl-piperazin-1-yl)-4-oxo-1,4-dihydro-quinoline-3-carboxylic acid) 3-morpholino rifamycin S] were, in that order, 0.25 to 62 µg/mL (≈ 0.219 to 54.4 µM), 0.002 to 1.95 µg/mL (≈ 0.00175 to 1.71 µM) and 0.063 to 31 µg/mL.
For the molecule `CO[C@H]1/C=C/O[C@@]2(C)Oc3c(C)c(O)c4c(c3C2=O)C(=O)C(N2CCOCC2)=C(NC(=O)/C(C)=C\C=C\[C@H](C)[C@H](O)[C@@H](C)[C@@H](O)[C@@H](C)[C@H](OC(=O)N2CCN(c3cc5c(cc3F)c(=O)c(C(=O)O)cn5C3CC3)CC2)[C@@H]1C)C4=O` [Example 16, 25-O-Desacetyl-(4-carbonyl-1-cyclopropyl-6-fluoro-4-oxo-7-piperazin-1-yl-1,4-dihydro-quinoline-3-carboxylic acid) 3-morpholino rifamycin S], the values for the MIC in assay [1], in assay [2] and in assay [3] were 0.25 to 62 µg/mL (≈ 0.228 to 56.6 µM), 0.002 to 1.95 µg/mL (≈ 0.00182 to 1.78 µM) and 0.063 to 31 µg/mL, respectively.
Regarding `COc1c(N2CCN(C(=O)C3CN(C(=O)O[C@H]4[C@H](C)[C@H](O)[C@H](C)[C@@H](O)[C@@H](C)/C=C/C=C(/C)C(=O)NC5=C(N6CCOCC6)C(=O)c6c(c(O)c(C)c7c6C(=O)[C@@](C)(O/C=C/[C@H](OC)[C@H]4C)O7)C5=O)C3)CC2)c(F)cc2c(=O)c(C(=O)O)cn(C3CC3)c12` [Example 66], the figures for the MIC in assay [1], in assay [2] and in assay [3] were 0.25 to 62 µg/mL (≈ 0.207 to 51.3 µM), 0.002 to 1.95 µg/mL (≈ 0.00165 to 1.61 µM) and 0.063 to 31 µg/mL, respectively.
